Measurements: publication PMC9571594, “Development of Semisynthetic Apoptosis-Inducing Agents Based on Natural Phenolic Acids Scaffold: Design, Synthesis and In-Vitro Biological Evaluation” (Molecules, 2022)
Values joined by “and” are separate entries in the source; they are usually repeats but may differ in a detail not shown here. Equal entries are not always repeated. Where two headings read alike, the source gives them in different places.

What was measured:
Format in all cases: cell-based
Caco-2 cancer cell line = test: MTT cell viability assay, Caco-2; settings: 48 h; for IC50: MTT, average of triplicates, semi-synthesized compounds (Table 3), read-out: IC50 (μM) on Caco-2 cancer cell line
Procedure: MCF-7 cells (Human breast adenocarcinoma), HepG2 (human hepatocellular carcinoma), A549 (human lung adenocarcinoma), Caco-2 (colon carcinoma), PANC-1 (human pancreatic cancer), and Vero cells (derived from normal kidney cells) were supplied by (Holding Company for Biological Products and Vaccines VACSERA; Giza, Egypt). The cells were cultured in PRMI 1640 medium (Lonza, Switzerland) supplemented with 10% fetal bovine serum (Gibco), 1% penicillin and 1% streptomycin (Sigma Aldrich, Saint Louis, MO, USA) at 37 °C under an atmosphere of 5% CO2 and 95% air.
The effect of parent compounds and their derivatives were assessed by (3-(4,5-dimethylthiazol-2-yl)-2,5diphenyl-tetrazolium bromide) MTT assay. […] After a merged sheet of cells developed, the growth media was decanted from the 96-well microtiter and refilled with different concentrations of compounds (µg/mL), and the plate was incubated at 37 °C for 48 h to minimize exposure to the dissolving agent (Supporting Information).
MTT solution (BIO BASIC CANADA INC) was prepared [5 mg/mL in phosphate buffered saline (PBS)], added to each well and incubated for 4 h, then after removing the media, 200 μL of DMSO was added to each well to solubilize the formazan crystals and the optical density of the formazan product was measured at 560 nm using microplate reader (mindray, MR-96A). The results were calculated as the mean of the three independent experiments. […]
Determination of sample cytotoxicity on cells (MTT protocol) […]
well) and incubated at 37°C for 24 hours to develop a complete monolayer sheet.
2- Growth medium was decanted from 96 well micro titer plates after confluent sheet of cells were formed, cell monolayer was washed twice with wash media.
3- two-fold dilutions of tested sample was made in RPMI medium with 2% serum […]
4- 0.1 ml of each dilution was tested in different wells leaving 3 wells as control, receiving only maintenance medium.
5- Plate was incubated at 37°C and examined. Cells were checked for any physical signs of toxicity, e.g. partial or complete loss of the monolayer, rounding, shrinkage, […]
6- MTT solution was prepared (5mg/ml in PBS) (BIO BASIC CANADA INC).
8- 20ul MTT solution were added to each well. Place on a shaking table, 150rpm for 5 minutes, to thoroughly mix the MTT into the media.
10) Dump off the media. (dry plate on paper towels to remove residue if necessary. […] 9 ش - ايلعلا هبضهلا - مطقملا / ىسيئرلا لمعملا […]

Caco-2 cells [1] = test: Cell-cycle analysis by flow cytometry; settings: for %G0–G1 / %G2/M / %S / %Pre-G1: Caco-2 cells; for %G0–G1 / %G2/M / %S: cell-cycle distribution after treatment; for %Pre-G1: Pre-G1 = apoptotic population
Procedure: The potential candidates with anti-tumor effect on the Caco-2 cell line along with a high SI were chosen for cell-cycle analysis. The cell-cycle distribution and cell death were analyzed using Annexin V-FITC/PI staining and flow cytometry (Table 4, Figure 4).
In order to determine the percentage of viable, apoptotic and necrotic cells after treatment with our compounds, double-staining with fluorescein isothiocyanate (FITC) and PI was performed. Annexin V-FITC Apoptosis Detection Kit (BioVision, CA, USA) was used. Briefly, cultured Caco-2 were treated with the tested compounds or DMSO for 24h. Cells were then collected by centrifugation at 2000 rpm for 5 min, and the pellet was washed with PBS then centrifuged again at 2000 rpm for 5 min then resuspended in 500μL of the kit’s binding buffer before adding the Annexin V-FITC and PI. The cells were then incubated at room temperature in the dark for 5 min. […]
Assay : Cell Cycle Analysis
Kit used : ab139418_Propidium Iodide Flow Cytometry Kit/BD
Assay samples :Cell culture
(§1) Cpd. No. Cpd. No. Cpd. No. Cpd. No.

Caco-2 cells [2] = test: Annexin V-FITC/PI apoptosis assay by flow cytometry; set-up: key: % of cells; settings: annexin-V FITC/PI staining, 24h
Procedure: In order to determine the percentage of viable, apoptotic and necrotic cells after treatment with our compounds, double-staining with fluorescein isothiocyanate (FITC) and PI was performed. Annexin V-FITC Apoptosis Detection Kit (BioVision, CA, USA) was used. Briefly, cultured Caco-2 were treated with the tested compounds or DMSO for 24h. Cells were then collected by centrifugation at 2000 rpm for 5 min, and the pellet was washed with PBS then centrifuged again at 2000 rpm for 5 min then resuspended in 500μL of the kit’s binding buffer before adding the Annexin V-FITC and PI. The cells were then incubated at room temperature in the dark for 5 min. Annexin V-FITC binding was measured using FACS Calibur flow cytometer (BD biosciences, USA) (Ex = 488 nm, Em = 533 nm, FL1 filter for annexin and FL2 filter for PI).

MMP-9 = test: RT-qPCR gene expression of MMP-9; settings: for MMP9 Fold Change: Caco2, relative to cont.Caco2 = 1
Procedure: (§2) The treated cells were harvested and the total RNA was extracted using RNeasy Mini Kit (Qiagen) according to the manufacturer’s instruction. The primers of the required genes (Table 6) were used for SYBR Green qRT-PCR using a one-step RT-PCR kit with SYBR Green (Bio-Rad). qRT-PCR was performed on Rotor Gene Q (Qiagen). […] Rotor-Gene 6000 Series Software was used for data analysis. and their HGNC ID was added (Table 6)
(§3) Researcher : Dr/Noura email: mob.
(§4) Reader : Rotorgene RT- PCR system
(§5) Kit used : Qiagen RNA extraction/BioRad syber green PCR MMX
(§6) Assay samples :Cell culture Lysate
as §1

MMP-2 = test: RT-qPCR gene expression of MMP-2; settings: for MMP2 Fold Change: Caco2, relative to cont.Caco2 = 1
Procedure: as §2, §3, §4, §5, §6, §1

Compound | IC50 (Caco-2 cancer cell line; Homo sapiens, Caco-2) [µM] | %G0–G1 (Caco-2 cells [1]) [%] | %G2/M (Caco-2 cells [1]) [%] | %S (Caco-2 cells [1]) [%] | %Pre-G1 (Caco-2 cells [1]) | Apoptosis Total (Caco-2 cells [2]) | Early Apoptosis (Caco-2 cells [2]) | Necrosis (Caco-2 cells [2]) | also measured
O=C(/C=C/c1ccc(O)c(O)c1)N1CCN(c2ccccc2)CC1 [Compound 3, (E)-3-(3,4-Dihydroxyphenyl)-1-(4-phenylpiperazin-1-yl)prop-2-en-1-one] | 80 | – | – | – | – | – | – | – | –
O=C(/C=C/c1ccc(O)c(O)c1)Nc1ccc(O)cc1 [Compound 4, (E)-3-(3,4-Dihydroxyphenyl)-N-(4-hydroxyphenyl)acrylamide] | 70 | – | – | – | – | – | – | – | –
Cc1ccc(NC(=O)/C=C/c2ccc(O)c(O)c2)cc1 [Compound 5, (E)-3-(3,4-Dihydroxyphenyl)-N-(p-tolyl)acrylamide] | 60 | 41.52 ± 2.61 | 26.86 ± 2.75 | 31.62 ± 1.79 | 7.56 ± 0.39% | 7.56 | 2.59 | 1.04 | %G0–G1 (Caco-2 cells [1]; listed as CA3): 41.52%; %G2/M (Caco-2 cells [1]; listed as CA3): 26.86%; %S (Caco-2 cells [1]; listed as CA3): 31.62%; %Pre-G1 (Caco-2 cells [1]; listed as CA3): 7.56%; Late Apoptosis (Caco-2 cells [2]): 3.93
O=C(/C=C/c1ccc(O)c(O)c1)NC1CCCCC1 [Compound 6, (E)-N-Cyclohexyl-3-(3,4-dihydroxyphenyl)acrylamide] | 50 | – | – | – | – | – | – | – | –
O=C(/C=C/c1ccc(O)c(O)c1)Nc1ccc(Br)cc1 [Compound 7, (E)-N-(4-Bromophenyl)-3-(3,4-dihydroxyphenyl)acrylamide] | 20 | 28.68 ± 1.64 | 44.91 ± 3.42 | 26.41 ± 2.15 | 18.26% and 18.26 ± 1.42% | 18.26 | 4.75 | 2.14 | %G0–G1 (Caco-2 cells [1]; listed as CA6): 28.68%; %G2/M (Caco-2 cells [1]; listed as CA6): 44.91%; %S (Caco-2 cells [1]; listed as CA6): 26.41%; MMP9 Fold Change (MMP-9): 0.29±0.006 Fold Change; expression of MMP9 (in words) (MMP-9; Figures 8 and 9): greatest inhibition; MMP2 Fold Change (MMP-2): 0.16±0.004 Fold Change; expression of MMP2 (in words) (MMP-2; Figures 8 and 9): greatest inhibition
COc1ccc(NC(=O)/C=C/c2ccc(O)c(O)c2)cc1 [Compound 8, (E)-N-(4-Methoxyphenyl)-3-(3,4-dihydroxyphenyl)acrylamide] | 80 | – | – | – | – | – | – | – | –
O=C(/C=C/c1ccc(O)c(O)c1)NCc1ccccc1 [Compound 9, (E)-N-Benzyl-3-(3,4-dihydroxyphenyl)acrylamide] | 30 | 38.51 ± 1.95 | 30.05 ± 2.59 | 31.44 ± 2.87 | 9.62 ± 0.37% | 9.62 | 3.72 | 1.36 | %G0–G1 (Caco-2 cells [1]; listed as CA9): 38.51%; %G2/M (Caco-2 cells [1]; listed as CA9): 30.05%; %S (Caco-2 cells [1]; listed as CA9): 31.44%; %Pre-G1 (Caco-2 cells [1]; listed as CA9): 9.62%; Late Apoptosis (Caco-2 cells [2]): 4.54
O=C(/C=C/c1ccc(O)c(O)c1)Nc1ccc(Cl)cc1 [Compound 10, (E)-N-(4-Chlorophenyl)-3-(3,4-dihydroxyphenyl)acrylamide] | 9 | 29.75 ± 1.73 | 41.98 ± 2.18 | 28.27 ± 1.99 | 23.42% and 23.42 ± 2.12% | 23.42 | 7.59 | 3.14 | %G0–G1 (Caco-2 cells [1]; listed as CA11): 29.75%; %G2/M (Caco-2 cells [1]; listed as CA11): 41.98%; %S (Caco-2 cells [1]; listed as CA11): 28.27%
Nc1ccccc1NC(=O)/C=C/c1ccc(O)c(O)c1 [Compound 11, (E)-N-(2-Aminophenyl)-3-(3,4-dihydroxyphenyl)acrylamide] | 10 | 41.09 ± 2.76 | 25.55 ± 2.47 | 33.36 ± 2.73 | 14.04% and 14.04 ± 0.95% | 14.04 | 2.47 | 2.07 | %G0–G1 (Caco-2 cells [1]; listed as CA12): 41.09%; %G2/M (Caco-2 cells [1]; listed as CA12): 25.55%; %S (Caco-2 cells [1]; listed as CA12): 33.36%; Late Apoptosis (Caco-2 cells [2]; listed as CA12): 9.5; MMP9 Fold Change (MMP-9): 0.30±0.006 Fold Change; MMP2 Fold Change (MMP-2): 0.54±0.014 Fold Change
COc1ccc(/C=C/C(=O)N2CCN(c3ccccc3)CC2)cc1O [Compound 12, (E)-3-(3-Hydroxy-4-methoxyphenyl)-1-(4-phenylpiperazin-1-yl)prop-2-en-1-one] | 40 | – | – | – | – | – | – | – | –
COc1ccc(NC(=O)/C=C/c2ccc(OC)c(O)c2)cc1 [Compound 13, (E)-3-(3-Hydroxy-4-methoxyphenyl)-N-(4-methoxyphenyl)acrylamide] | 80 | – | – | – | – | – | – | – | –
COc1ccc(NC(=O)/C=C/c2ccc(O)c(OC)c2)cc1 [Compound 16, (E)-3-(4-Hydroxy-3-methoxyphenyl)-N-(4-methoxyphenyl)acrylamide] | 80 | – | – | – | – | – | – | – | –
COc1ccc(/C=C/C(=O)Nc2ccccc2N)cc1O [Compound 20, (E)-N-(2-Aminophenyl)-3-(3-hydroxy-4-methoxyphenyl)acrylamide] | – | 39.12 ± 2.58 | 26.84 ± 2.34 | 34.04 ± 2.69 | 8.62 ± 0.69% | 8.62 | 2.19 | 1.24 | apoptotic population compared to the parent compound (Caco-2 cells [1]; Caco-2, in words, versus parent 1 or 2): non-significant decrease; %G0–G1 (Caco-2 cells [1]; listed as FA12): 39.12%; %G2/M (Caco-2 cells [1]; listed as FA12): 26.84%; %S (Caco-2 cells [1]; listed as FA12): 34.04%; %Pre-G1 (Caco-2 cells [1]; listed as FA12): 8.62%; Late Apoptosis (Caco-2 cells [2]): 5.19; MMP9 Fold Change (MMP-9): 0.45±0.009 Fold Change; MMP2 Fold Change (MMP-2): 0.68±0.018 Fold Change
COc1cccc2c1C(=O)c1c(O)c3c(c(O)c1C2=O)C[C@@](O)(C(=O)CO)C[C@@H]3O[C@H]1C[C@H](N)[C@H](O)[C@H](C)O1 [Doxorubicin] | – | – | – | – | – | – | – | – | IC50 (μM) ± SD Caco-2 (Caco-2 cancer cell line): 0.17 ± 1.1 µM
(E)-3-(3-Hydroxy-4-methoxyphenyl)-N-(p-tolyl)acrylamide [Compound 14] | – | – | – | – | 16.51% and 16.51 ± 0.63% | 16.51 | 3.99 | 2.26 | IC50 (Caco-2 cancer cell line): 50 µM
